# Data reported in patent US10059655B2, “Lipids and lipid compositions for the delivery of active agents” (priority 2013, dated 2018).
# Test: Measurement of mRNA encapsulation in lipid nanoparticles (Quant-iT Ribogreen)
# Assay type: physicochemical
# Conditions: Leptin mRNA in LNP
# Procedure: All equipment and disposable supplies are certified free of RNase activity by the manufacturer or rendered RNase free by use of the RNaseZap reagent (LifeTechnologies). mRNA is encapsulated at a cationic lipid amine to mRNA phosphate (N:P) molar ratio of 4:1. Lipids (cationic lipid, DSPC, cholesterol and lipidated PEG or stealth lipid) are dissolved in ethanol. The molar ratios are 40:10:38:2, respectively. The mixture is sonicated briefly, then gently agitated for 5 minutes and then maintained at 37° C. until use. mRNA is exchanged into citrate buffer pH 5.8-6.0 by use of Amicon Ultra-15 centrifugal concentrators, and the final concentration is adjusted to 0.5 mg/ml and held at 37° C. until use. An equal volume of lipids in ethanol, mRNA in citrate buffer, and citrate buffer alone are drawn into disposable syringes.
# Tubing leading from syringes containing lipids and mRNA are attached to the T junction, and tubing leading from the syringe containing citrate buffer alone is paired with the tubing exiting the T-junction over a collection vessel containing a stir bar on an active stir plate. Syringes are placed in a syringe pump set to expel contents at a flow rate of 1 ml per minute. The pump is activated, and the collected mRNA in lipid nanoparticles is transferred to SnakeSkin dialysis tubing (10,000 MWCO, Thermo Scientific). Material is dialyzed against RNAse- and pyrogen-free 1× phosphate buffered saline overnight at 4° C.
# Percent encapsulation of mRNA in lipid nanoparticles is determined using the Quant-iT Ribogreen RNA Assay kit (Life Technologies). The LNP-mRNA suspension is assayed in buffer (mRNA outside the particle), and buffer plus Triton X-100 detergent (total mRNA). The difference calculated is the mRNA inside the particle. Prepare a 1000 ng/mL stock from the RNA provided in the kit and use this to generate a standard curve (0 ng/ml, 15.63-1000 ng/ml) in TE and TE+0.75% Triton X-100. Prepare LNP-mRNA samples in TE buffer and TE buffer+0.75% Triton X-100 with appropriate dilution so that reading is in the range of standard curve (400-2,000 fold). In a 384-well plate (Costar non-treated #3573) add 0.04 ml of standard (in duplicate) or sample (in triplicate) per well. Dilute Ribogreen reagent 240-fold in TE buffer and add 0.06 ml per well. Mix contents of wells and measure fluorescence (excitation=480 nm, emission=520 nm). Subtract background values (no RNA) from standard and test sample values and determine the concentrations of RNA in the samples using the standard curves. Determine the percent encapsulation of the sample by dividing the difference in concentrations between sample+triton and sample in buffer alone by the sample+triton concentration.
row,SMILES,% encapsulation mRNA Leptin
1,"CCCCCCCCOC(CCC(=O)OCC(COC(=O)CCC(OCCCCCCCC)OCCCCCCCC)COC(=O)C1(C)CCN(C)C1)OCCCCCCCC (centres unmarked) [Example 58, 2-(((1,3-dimethylpyrrolidine-3-carbonyl)oxy)methyl)propane-1,3-diyl bis(4,4-bis(octyloxy)butanoate)]",86.0%
2,"CCCCCCCCOC(CCC(=O)OCC(COC(=O)CCC(OCCCCCCCC)OCCCCCCCC)COC(=O)CCN(C)C)OCCCCCCCC [Example 59, 2-(((3-(dimethylamino)propanoyl)oxy)methyl)propane-1,3-diyl bis(4,4-bis(octyloxy)butanoate)]",76.6%
3,"CCCCCCCCOC(CCCCC(=O)OCC(COC(=O)CCCCC(OCCCCCCCC)OCCCCCCCC)COC(=O)C1CCN(C)C1)OCCCCCCCC (centres unmarked) [Example 60, 2-(((1-methylpyrrolidine-3-carbonyl)oxy)methyl)propane-1,3-diyl bis(6,6-bis(octyloxy)hexanoate)]",89.1%
4,"CCCCCCCCCCCCCCCC(=O)OCC(COC(=O)CCCCC(COC(=O)CCCCCCC)COC(=O)CCCCCCC)COC(=O)C1CCN(C)C1 (centres unmarked) [Example 63, 2-(5-(3-((1-methylpyrrolidine-3-carbonyl)oxy)-2-((palmitoyloxy)methyl)propoxy)-5-oxopentyl)propane-1,3-diyl dioctanoate]",18.8%
5,"CCCCCCCCCCCCCC(=O)OCC(COC(=O)CCCCC(COC(=O)CCCCCCC)COC(=O)CCCCCCC)COC(=O)C1CCN(C)C1 (centres unmarked) [Example 64, 2-(5-(3-((1-methylpyrrolidine-3-carbonyl)oxy)-2-((tetradecanoyloxy)methyl)propoxy)-5-oxopentyl)propane-1,3-diyl dioctanoate]",87.9%
6,"CCCCCCCCCCCCCC(=O)OCC(COC(=O)CCC(OCCCCCCCC)OCCCCCCCC)COC(=O)C1CCN(C)C1 (centres unmarked) [Example 66, 3-((4,4-bis(octyloxy)butanoyl)oxy)-2-((tetradecanoyloxy)methyl)propyl 1-methylpyrrolidine-3-carboxylate]",70.5%
7,"CCCCCCCCCCCCCCCC(=O)OCC(COC(=O)CCC(OCCCCCCCC)OCCCCCCCC)COC(=O)C1CCN(C)C1 (centres unmarked) [Example 67, 3-((4,4-bis(octyloxy)butanoyl)oxy)-2-((palmitoyloxy)methyl)propyl 1-methylpyrrolidine-3-carboxylate]",62.8%
8,"CCCCCCCCOC(CCC(=O)OCC(COC(=O)CCCCCCC(=O)OC)COC(=O)C1CCN(C)C1)OCCCCCCCC (centres unmarked) [Example 68, 1-(3-((4,4-bis(octyloxy)butanoyl)oxy)-2-(((1-methylpyrrolidine-3-carbonyl)oxy)methyl)propyl) 8-methyl octanedioate]",5.9%
9,"CCCCCCCCOC(=O)CCCCCCCCC(=O)OCC(COC(=O)CCC(OCCCCCCCC)OCCCCCCCC)COC(=O)C1CCN(C)C1 (centres unmarked) [Example 69, 1-(3-((4,4-bis(octyloxy)butanoyl)oxy)-2-(((1-methylpyrrolidine-3-carbonyl)oxy)methyl)propyl) 10-octyl decanedioate]",79.3%
10,"CCCCCCCCCCCCC(CCOC(=O)OCC(COC(=O)CCCCCCC(=O)OC)COC(=O)CCC(OCCCCCCCC)OCCCCCCCC)OC(=O)OCCCN(C)C (centres unmarked) [Example 70, 1-(16-(((4,4-bis(octyloxy)butanoyl)oxy)methyl)-9-dodecyl-2-methyl-7,13-dioxo-6,8,12,14-tetraoxa-2-azaheptadecan-17-yl) 8-methyl octanedioate]",92.1%
11,"CCCCCCCCOC(=O)CCCCCCCCC(=O)OCC(COC(=O)CCCCC(OCC(CCC)CCC)OCC(CCC)CCC)COC(=O)C1(C)CCN(C)CC1 (centres unmarked) [Example 71, 1-(3-((6,6-bis((2-propylpentyl)oxy)hexanoyl)oxy)-2-(((1,4-dimethylpiperidine-4-carbonyl)oxy)methyl)propyl) 10-octyl decanedioate]",96.5%
12,"CCCC(CCC)COC(CCCCC(=O)OCC(COC(=O)CCCCCCC(=O)OC)COC(=O)C1(C)CCN(C)CC1)OCC(CCC)CCC (centres unmarked) [Example 72, 1-(3-((6,6-bis((2-propylpentyl)oxy)hexanoyl)oxy)-2-(((1,4-dimethylpiperidine-4-carbonyl)oxy)methyl)propyl) 8-methyl octanedioate]",31.2%
13,"COC(=O)CCCCCCC(=O)OCC(COC(=O)CCCCCCC(=O)OC)COC(=O)C1CCN(C)C1 (centres unmarked) [Example 73, 8-dimethyl O′1,O1-(2-(((1-methylpyrrolidine-3-carbonyl)oxy)methyl)propane-1,3-diyl)dioctanedioate]",9.3%
14,"CCCCCCCCCCCCC(CCOC(=O)OCC(COC(=O)CCCCCCC(=O)OC)COC(=O)CCCCCCC(=O)OC)OC(=O)OCCCN(C)C (centres unmarked) [Example 74, O′1,O1-(2-(7-dodecyl-14-methyl-3,9-dioxo-2,4,8,10-tetraoxa-14-azapentadecyl)propane-1,3-diyl) 8-dimethyl dioctanedioate]",23.0%
